This note sets out measurements from article PMC11233931, “Remodeling tumor‐associated macrophage for anti‐cancer effects by rational design of irreversible inhibition of mitogen‐activated protein kinase‐activated protein kinase 2” (MedComm, 2024).

Test in all cases: Eurofins kinase selectivity profile against 380 other human recombinant kinases (Table S2)
What all share (assay type): biochemical

The target of assay [1] is T1, 380 human recombinant protein kinases (Homo sapiens, UniProt P50613).
T1 construct: purchased Eurofins (Celle Lévescault)
The following applies: CDK7/cyclinH/MAT1(h), read-out: Inhibition rate. Here is the method:
(§1) Subsequently, to ascertain whether the high potency of compound 11 was specific for MK2, an additional 380 human recombinant protein kinases were screened.
(§2) To assess the impact of various compounds on MK2 kinase activity, we utilized the ADP‐Glo Assay Kit (Promega) following the manufacturer's instructions. Luminescence measurements were taken using a SpectraMax Paradigm reader. The inhibition percentage was calculated using the following formula: ((specific signalDMSO control − specific signal inhibitor)/(specific signalDMSO control)) × 100%. The IC50 values were determined employing dose–response curve fitting via Prism (Graph Pad). Additionally, Eurofins company (Celle Lévescault) conducted the analysis on compound 11’s inhibitory activity against 380 other human recombinant kinases at various concentrations.

Assay [2] addresses T2, 380 human recombinant protein kinases (Homo sapiens, UniProt Q15375).
T2 construct: purchased Eurofins (Celle Lévescault)
Conditions: EphA7(h), read-out: Inhibition rate. As to the method:
as §1, §2

For assay [3], the target named is T3, 380 human recombinant protein kinases (Homo sapiens, UniProt Q9NRH2).
T3 construct: purchased Eurofins (Celle Lévescault)
T3 sequence (Q9NRH2 1-765): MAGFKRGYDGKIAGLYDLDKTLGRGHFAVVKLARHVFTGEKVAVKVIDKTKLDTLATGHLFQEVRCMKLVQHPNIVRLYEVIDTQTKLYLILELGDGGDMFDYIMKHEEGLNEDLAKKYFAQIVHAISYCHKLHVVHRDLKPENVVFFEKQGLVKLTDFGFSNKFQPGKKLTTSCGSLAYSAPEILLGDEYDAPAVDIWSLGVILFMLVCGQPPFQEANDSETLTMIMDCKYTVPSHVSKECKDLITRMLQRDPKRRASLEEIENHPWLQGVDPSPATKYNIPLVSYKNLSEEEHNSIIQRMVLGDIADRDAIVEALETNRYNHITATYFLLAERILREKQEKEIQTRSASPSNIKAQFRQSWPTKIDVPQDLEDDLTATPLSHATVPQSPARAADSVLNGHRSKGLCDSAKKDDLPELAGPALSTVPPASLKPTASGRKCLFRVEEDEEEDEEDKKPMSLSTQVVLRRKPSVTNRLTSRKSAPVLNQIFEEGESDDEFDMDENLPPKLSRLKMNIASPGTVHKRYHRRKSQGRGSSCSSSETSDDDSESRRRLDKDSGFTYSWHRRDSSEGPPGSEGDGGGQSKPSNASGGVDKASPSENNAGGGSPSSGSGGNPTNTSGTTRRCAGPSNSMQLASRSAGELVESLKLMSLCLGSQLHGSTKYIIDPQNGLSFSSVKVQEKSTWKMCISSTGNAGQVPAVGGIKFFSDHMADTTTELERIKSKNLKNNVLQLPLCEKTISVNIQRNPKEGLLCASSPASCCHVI
The following applies: SNRK(h), read-out: Inhibition rate (%). Here is the method:
as §1, §2

Assay [4] deals with T4, 380 human recombinant protein kinases (Homo sapiens, UniProt Q13523).
T4 construct: purchased Eurofins (Celle Lévescault)
The following applies: PRP4(h), read-out: Inhibition rate. As to the method: as §1, §2

For assay [5], the target named is T5, 380 human recombinant protein kinases (Homo sapiens, UniProt Q13873).
T5 construct: purchased Eurofins (Celle Lévescault)
T5 sequence (Q13873 27-1038): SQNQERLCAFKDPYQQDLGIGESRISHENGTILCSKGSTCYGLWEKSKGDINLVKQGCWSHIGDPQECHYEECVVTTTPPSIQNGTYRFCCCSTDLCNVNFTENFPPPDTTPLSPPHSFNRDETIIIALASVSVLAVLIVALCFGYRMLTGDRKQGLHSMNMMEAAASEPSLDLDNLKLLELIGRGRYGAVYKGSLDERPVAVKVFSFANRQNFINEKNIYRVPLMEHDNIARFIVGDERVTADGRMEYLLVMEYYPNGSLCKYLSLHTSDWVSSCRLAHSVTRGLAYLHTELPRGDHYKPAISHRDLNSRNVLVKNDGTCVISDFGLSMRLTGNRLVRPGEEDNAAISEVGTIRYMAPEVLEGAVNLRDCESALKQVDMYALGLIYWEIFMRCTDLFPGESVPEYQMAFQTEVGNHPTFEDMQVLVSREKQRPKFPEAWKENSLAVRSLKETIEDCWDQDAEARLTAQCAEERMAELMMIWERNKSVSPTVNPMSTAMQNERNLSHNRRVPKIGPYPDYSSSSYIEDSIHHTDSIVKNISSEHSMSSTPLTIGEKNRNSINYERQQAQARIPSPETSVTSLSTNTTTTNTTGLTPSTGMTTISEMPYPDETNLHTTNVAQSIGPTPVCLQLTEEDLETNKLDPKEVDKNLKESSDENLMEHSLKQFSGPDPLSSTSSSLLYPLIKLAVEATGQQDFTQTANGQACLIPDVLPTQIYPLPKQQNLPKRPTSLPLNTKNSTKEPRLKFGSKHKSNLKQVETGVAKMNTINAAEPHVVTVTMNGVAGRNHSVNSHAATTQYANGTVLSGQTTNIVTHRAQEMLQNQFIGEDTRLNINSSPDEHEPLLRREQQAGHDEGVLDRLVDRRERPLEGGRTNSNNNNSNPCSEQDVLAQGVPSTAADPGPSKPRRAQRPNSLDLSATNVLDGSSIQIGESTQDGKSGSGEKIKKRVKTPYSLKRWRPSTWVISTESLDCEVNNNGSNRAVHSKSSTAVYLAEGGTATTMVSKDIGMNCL
The following applies: BMPR2(h), read-out: Inhibition rate. Here is the method:
as §1, §2

The target in assay [6] is T6, 380 human recombinant protein kinases (Homo sapiens, UniProt P06239).
T6 construct: purchased Eurofins (Celle Lévescault)
Conditions: Lck(h), read-out: Inhibition rate. Here is the method:
as §1, §2

The target in assay [7] is T7, 380 human recombinant protein kinases (Homo sapiens, UniProt O43353).
T7 construct: purchased Eurofins (Celle Lévescault)
The following applies: RIPK2(h), read-out: Inhibition rate. Here is the method: as §1, §2

Molecules are shown by their SMILES.

Broadly, the inhibition is the relative decrease from the control value, in per cent.

T1 sequence (P50613 whole entry): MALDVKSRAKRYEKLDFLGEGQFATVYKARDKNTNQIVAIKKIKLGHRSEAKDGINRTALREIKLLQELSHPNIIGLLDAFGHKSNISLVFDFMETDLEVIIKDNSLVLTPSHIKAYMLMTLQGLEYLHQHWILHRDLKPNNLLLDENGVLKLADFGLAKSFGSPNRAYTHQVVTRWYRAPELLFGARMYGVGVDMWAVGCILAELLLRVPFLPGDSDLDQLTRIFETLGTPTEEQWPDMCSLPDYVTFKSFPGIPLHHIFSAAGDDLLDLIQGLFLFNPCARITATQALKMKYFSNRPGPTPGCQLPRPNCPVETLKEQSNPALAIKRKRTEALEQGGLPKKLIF
T2 sequence (Q15375 28-998): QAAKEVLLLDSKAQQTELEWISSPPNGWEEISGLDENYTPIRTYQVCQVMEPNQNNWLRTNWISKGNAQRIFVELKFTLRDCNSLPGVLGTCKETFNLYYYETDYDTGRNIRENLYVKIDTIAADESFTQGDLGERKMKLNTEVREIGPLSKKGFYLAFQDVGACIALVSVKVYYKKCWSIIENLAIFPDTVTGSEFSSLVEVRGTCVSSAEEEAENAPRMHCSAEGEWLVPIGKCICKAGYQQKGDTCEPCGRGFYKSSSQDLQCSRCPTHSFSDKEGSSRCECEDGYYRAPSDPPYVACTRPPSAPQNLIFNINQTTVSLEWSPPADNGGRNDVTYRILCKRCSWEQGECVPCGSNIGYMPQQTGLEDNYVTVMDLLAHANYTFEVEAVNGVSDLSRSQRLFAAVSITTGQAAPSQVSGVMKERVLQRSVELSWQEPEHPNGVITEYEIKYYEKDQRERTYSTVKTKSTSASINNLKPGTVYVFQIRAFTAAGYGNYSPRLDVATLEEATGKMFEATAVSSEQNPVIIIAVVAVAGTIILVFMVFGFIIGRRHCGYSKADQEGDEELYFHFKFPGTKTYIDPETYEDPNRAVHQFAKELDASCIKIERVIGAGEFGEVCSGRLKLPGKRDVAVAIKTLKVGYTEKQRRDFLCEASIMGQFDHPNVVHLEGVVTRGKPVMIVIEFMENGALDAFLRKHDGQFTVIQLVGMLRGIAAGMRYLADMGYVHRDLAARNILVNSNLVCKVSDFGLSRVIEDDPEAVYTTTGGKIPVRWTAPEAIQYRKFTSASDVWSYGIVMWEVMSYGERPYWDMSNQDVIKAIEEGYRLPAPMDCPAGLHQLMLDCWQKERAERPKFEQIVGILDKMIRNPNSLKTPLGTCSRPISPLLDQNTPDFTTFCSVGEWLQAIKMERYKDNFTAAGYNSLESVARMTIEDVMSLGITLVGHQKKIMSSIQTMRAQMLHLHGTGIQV
T7 sequence (O43353 whole entry): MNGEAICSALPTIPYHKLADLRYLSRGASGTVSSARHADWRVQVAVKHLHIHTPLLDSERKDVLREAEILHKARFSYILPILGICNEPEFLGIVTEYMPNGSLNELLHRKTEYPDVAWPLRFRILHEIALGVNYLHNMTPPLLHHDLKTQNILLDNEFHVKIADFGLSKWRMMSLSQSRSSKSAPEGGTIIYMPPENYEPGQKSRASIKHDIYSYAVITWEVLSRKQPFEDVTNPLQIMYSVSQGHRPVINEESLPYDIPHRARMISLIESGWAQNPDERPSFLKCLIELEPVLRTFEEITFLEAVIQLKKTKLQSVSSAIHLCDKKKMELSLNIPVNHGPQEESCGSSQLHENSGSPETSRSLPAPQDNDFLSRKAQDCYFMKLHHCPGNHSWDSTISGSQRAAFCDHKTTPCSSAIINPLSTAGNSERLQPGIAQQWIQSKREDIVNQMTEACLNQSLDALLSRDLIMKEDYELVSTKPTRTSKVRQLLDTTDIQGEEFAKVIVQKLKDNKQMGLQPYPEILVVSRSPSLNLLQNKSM
T6 sequence (P06239 whole entry): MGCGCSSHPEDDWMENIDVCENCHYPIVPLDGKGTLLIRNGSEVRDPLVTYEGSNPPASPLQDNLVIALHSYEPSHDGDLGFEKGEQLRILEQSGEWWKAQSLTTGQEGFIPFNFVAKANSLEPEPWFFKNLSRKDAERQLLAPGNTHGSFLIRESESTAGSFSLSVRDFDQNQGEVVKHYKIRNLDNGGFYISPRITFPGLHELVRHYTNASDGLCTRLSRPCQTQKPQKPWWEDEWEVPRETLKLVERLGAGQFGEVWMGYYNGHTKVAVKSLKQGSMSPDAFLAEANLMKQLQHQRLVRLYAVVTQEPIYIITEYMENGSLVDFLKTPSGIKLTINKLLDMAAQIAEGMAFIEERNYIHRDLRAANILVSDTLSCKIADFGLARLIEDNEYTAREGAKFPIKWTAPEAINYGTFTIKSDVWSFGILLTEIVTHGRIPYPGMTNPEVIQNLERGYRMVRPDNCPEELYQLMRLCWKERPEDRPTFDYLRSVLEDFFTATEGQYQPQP
T4 sequence (Q13523 whole entry): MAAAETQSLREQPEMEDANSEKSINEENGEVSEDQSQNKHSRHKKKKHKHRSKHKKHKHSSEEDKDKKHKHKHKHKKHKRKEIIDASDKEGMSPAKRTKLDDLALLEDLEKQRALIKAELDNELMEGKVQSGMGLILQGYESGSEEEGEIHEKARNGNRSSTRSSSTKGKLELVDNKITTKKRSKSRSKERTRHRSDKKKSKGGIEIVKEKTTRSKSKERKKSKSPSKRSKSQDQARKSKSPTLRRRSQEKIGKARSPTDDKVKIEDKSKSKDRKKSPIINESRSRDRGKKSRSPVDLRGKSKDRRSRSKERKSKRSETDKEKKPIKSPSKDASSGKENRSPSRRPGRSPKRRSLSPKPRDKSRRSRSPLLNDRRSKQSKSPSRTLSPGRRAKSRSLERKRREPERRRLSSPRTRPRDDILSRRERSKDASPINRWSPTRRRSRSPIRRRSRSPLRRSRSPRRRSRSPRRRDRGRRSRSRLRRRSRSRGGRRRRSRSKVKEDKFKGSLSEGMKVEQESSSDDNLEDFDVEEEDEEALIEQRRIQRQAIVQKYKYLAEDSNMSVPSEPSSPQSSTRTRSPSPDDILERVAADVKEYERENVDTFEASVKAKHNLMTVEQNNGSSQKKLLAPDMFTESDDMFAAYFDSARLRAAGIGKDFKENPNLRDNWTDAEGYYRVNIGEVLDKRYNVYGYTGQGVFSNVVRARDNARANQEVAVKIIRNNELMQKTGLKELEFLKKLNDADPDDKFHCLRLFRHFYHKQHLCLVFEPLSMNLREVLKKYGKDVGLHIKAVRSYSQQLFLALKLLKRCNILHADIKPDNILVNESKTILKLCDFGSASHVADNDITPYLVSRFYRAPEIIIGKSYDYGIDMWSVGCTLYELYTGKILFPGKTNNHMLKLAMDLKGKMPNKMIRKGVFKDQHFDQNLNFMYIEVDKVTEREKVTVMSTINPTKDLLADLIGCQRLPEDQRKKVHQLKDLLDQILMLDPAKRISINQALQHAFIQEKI

For the molecule `C=CC(=O)Nc1cc(-c2cc(-c3cc4c([nH]3)CCNC4=O)ccn2)ccc1OC(F)(F)F` [compound 11], the inhibition at 0.01 µM was 5% in assay [1] (10 nM); 3% in assay [2] (10 nM); 4% in assay [3] (10 nM); -1% in assay [4] (10 nM); 8% in assay [5] (10 nM); -7% in assay [6] (10 nM). Moreover, the inhibition at 0.01 µM in assay [7] (10 nM) was 11%. Besides, the inhibition at 0.1 µM in assay [1] (100 nM) is -1%; in assay [2] (100 nM), -3%; in assay [3] (100 nM), 4%; in assay [4] (100 nM), -3%; in assay [5] (100 nM) it was 13%; in assay [6] (100 nM), -5%. The inhibition at 0.1 µM in assay [7] (100 nM) was found to be 46%. For the same molecule, the inhibition at 1 µM is -2% in assay [1] (1000 nM); -11% in assay [2] (1000 nM); 9% in assay [3] (1000 nM); 12% in assay [4] (1000 nM); 28% in assay [5] (1000 nM); -10% in assay [6] (1000 nM). Also, the inhibition at 1 µM in assay [7] (1000 nM) worked out at 88%.
